Here are results for 20 compounds from patent US7351714B2, “7-imino derivatives of camptothecin having antitumor activity” (priority 2004, dated 2008).

Molecules are shown by their SMILES.

For one data set, the system named is NCI H460. Put plainly: antiproliferative activity test (cytotoxic activity) on human tumour cells. It counts as cell-based. To be noted: H-460. How it is done:
Cytotoxic activity of the compounds of the present invention was assayed in cell systems of human tumour cells, using the antiproliferative activity test as a method of evaluation of the cytotoxic potential.
The cell line used is a lung non-small cell carcinoma that belongs to non-small cells hystotype named NCI H460.

For data set [1] the following is noted: cited from earlier work.
The test system of data set [2] is MKN-28 human gastric carcinoma. Put plainly: antitumor activity per os in athymic nude mice bearing s.c. tumor xenograft. Conditions: q4dx4; for TVI % (Tumor volume inhibition % in treated over control tumors): 11-12 day after last treatment. It counts as in vivo. From the text: A compound is considered active when TVI %≧50.

What is called IC50 is the concentration needed to halve the response being measured. Higher therefore signals a need for much substance. `CCC1(O)C(=O)OCc2c1cc1n(c2=O)Cc2c-1nc1ccccc1c2C=Nc1ccc(C(C)(C)C)cc1` (stereo not shown) [ST 2619, 7-(4-tert-butylphenyliminomethyl)-camptothecin]: in the data set with NCI H460, the midpoint of inhibition, the IC50, lay at 90 nM.

`CC[C@@]1(O)C(=O)OCc2c1cc1n(c2=O)Cc2c-1nc1ccccc1c2C=Nc1ccc(Sc2ccc(N)cc2)cc1` [ST2069, 7-4-(4-aminophenylthio)phenyliminomethylcamptothecin] came in with an IC50 in the data set with NCI H460 of 240 nM.

For the compound `CC[C@@]1(O)C(=O)OCc2c1cc1n(c2=O)Cc2c-1nc1ccccc1c2C=Nc1ccc(SSc2ccc(N)cc2)cc1` [ST2034, 7-4-(4-aminophenyldithio)phenyliminomethylcamptothecin], the IC50 in the data set with NCI H460 was found to be 390 nM.

The compound `CCC1(O)C(=O)OCc2c1cc1n(c2=O)Cc2c-1nc1ccccc1c2C=Nc1ccc(O)cc1` (stereo not shown) [ST 2616, 7-(4-hydroxyphenyliminomethyl)-camptothecin] yielded an IC50 in the data set with NCI H460 of 220 nM.

In the data set with NCI H460, `CC[C@@]1(O)C(=O)OCc2c1cc1n(c2=O)Cc2c-1nc1ccccc1c2C=Nc1ccccc1` [ST1546, 7-phenyliminomethylcamptothecin] returned an IC50 of 130 nM.

In the data set on NCI H460, `CC[C@@]1(O)C(=O)OCc2c1cc1n(c2=O)Cc2c-1nc1ccccc1c2C=Nc1ccccc1SC` [ST2138, 7-(2-methylthiophenyl)iminomethylcamptothecin] had an IC50 of 60 nM.

As for `CC[C@@]1(O)C(=O)OCc2c1cc1n(c2=O)Cc2c-1nc1ccccc1c2C=Nc1ccccc1Cl` [ST2228, 7-(2-chlorophenyl)iminomethylcamptothecin], the IC50 with NCI H460 was found to be 70 nM.

On to `CC[C@@]1(O)C(=O)OCc2c1cc1n(c2=O)Cc2c-1nc1ccccc1c2C=Nc1ccc(Cl)cc1` [ST2412, 7-(4-chlorophenyl)iminomethylcamptothecin], for which the IC50 in the data set on NCI H460 worked out at 80 nM.

With `CC[C@@]1(O)C(=O)OCc2c1cc1n(c2=O)Cc2c-1nc1ccccc1c2C=Nc1ccccc1C` [ST2212, 7-(2-methylphenyl)iminomethylcamptothecin], the IC50 with NCI H460 was found to be 100 nM.

Regarding `CC[C@@]1(O)C(=O)OCc2c1cc1n(c2=O)Cc2c-1nc1ccccc1c2C=Nc1ccccc1O` [ST2389, 7-(2-hydroxyphenyl)iminomethylcamptothecin], the IC50 in the data set on NCI H460 stood at 60 nM.

Compound `CC[C@@]1(O)C(=O)OCc2c1cc1n(c2=O)Cc2c-1nc1ccccc1c2C=Nc1ccc([N+](=O)[O-])cc1` [ST1561, 7-(4-nitrophenyl)iminomethylcamptothecin] came in with an IC50 with NCI H460 of 280 nM.

In the data set with NCI H460, `CC[C@@]1(O)C(=O)OCc2c1cc1n(c2=O)Cc2c-1nc1ccccc1c2C=Nc1ccccc1OC` [ST2343, 7-(2-methoxyphenyl)iminomethylcamptothecin] displayed an IC50 of 60 nM.

In the data set with NCI H460, `CC[C@@]1(O)C(=O)OCc2c1cc1n(c2=O)Cc2c-1nc1ccccc1c2C=Nc1ccccc1C(C)(C)C` [ST2388, 7-(2-t-butylphenyl)iminomethylcamptothecin] registered a 50% inhibitory concentration (IC50) of 70 nM.

In the case of `CC[C@@]1(O)C(=O)OCc2c1cc1n(c2=O)Cc2c-1nc1ccccc1c2C=Nc1ccccc1I` [ST2316, 7-(2-iodophenyl)iminomethylcamptothecin], in the data set with NCI H460, inhibition was half-maximal at 60 nM (IC50).

Compound `CC[C@@]1(O)C(=O)OCc2c1cc1n(c2=O)Cc2c-1nc1ccccc1c2C=Nc1c(C)cccc1C` [ST2317, 7-(2,6-dimethylphenyl)iminomethylcamptothecin] displayed an IC50 in the data set with NCI H460 of 150 nM.

For `CCC1(O)C(=O)OCc2c1cc1n(c2=O)Cc2c-1nc1ccccc1c2C=Nc1ccc(SC)cc1` (stereo not shown) [ST 2667, 7-(4-methylthiophenyliminomethyl)-camptothecin], the half-maximal inhibitory concentration (IC50) in the data set with NCI H460 was found to be 74 nM.

For `CC[C@@]1(O)C(=O)OCc2c1cc1n(c2=O)Cc2cc3c(CN(C)C)c(O)ccc3nc2-1` [Topotecan], in data set [1] (10 minutes after infusion), the “level in the cerebrospinal fluid with respect to plasma” value is reported as 30%. Moreover, the “lactone form hydrolysed to open ring” value in data set [1] (30 minutes after infusion) is given as 50%.

Compound `CC[C@@]1(O)C(=O)OCc2c1cc1n(c2=O)Cc2c-1nc1ccccc1c2C=Nc1ccccc1SSc1ccccc1N` [ST1737, 7-2-(2-aminophenyldithio)phenyliminomethylcamptothecin] registered a 50% inhibitory concentration (IC50) with NCI H460 of 17 nM. Besides, in data set [2] (4 mg/kg per os), the “Tox (Dead/treated mice)” value is 0/4 and the “TVI % (Tumor volume inhibition % in treated over control tumors)” value was found to be 69%. Moreover, in data set [2] (7 mg/kg per os), the “Tox (Dead/treated mice)” value is 0/4 and the “TVI % (Tumor volume inhibition % in treated over control tumors)” value is on record as 56%. For the same compound, in data set [2] (12 mg/kg per os), the “BWL % (Body weight loss % induced by drug treatment)” value stood at 4%, the “Tox (Dead/treated mice)” value is reported as 0/4 and the “TVI % (Tumor volume inhibition % in treated over control tumors)” value turned out to be 68%.

In the data set on NCI H460, `CCC1(O)C(=O)OCc2c1cc1n(c2=O)Cc2c-1nc1ccccc1c2C=Nc1ccc(C)cc1` (stereo not shown) [ST2478, 7-(4-methylphenyl)iminomethylcamptothecin] had an IC50 of 180 nM.

Take `CC[C@@]1(O)C(=O)OCc2c1cc1n(c2=O)Cc2c-1nc1ccccc1c2C=Nc1ccc(OC)cc1` [ST2477, 7-(4-methoxyphenyl)iminomethylcamptothecin]: the midpoint of inhibition in the data set with NCI H460, the IC50, lay at 160 nM.
